Results as given in US11999737B2, “Kinase inhibitors and related methods of use” (Duke University, priority 2014, dated 2024).

Assays:
Src = Src (Homo sapiens, UniProt P12931); test: 33P-ATP filter-binding kinase assay (kinome profile); type: biochemical; settings: 10 μM HS38
rabbit ileum = test: Carbachol-induced Ca2+-sensitized force in α-toxin permeabilized rabbit ileum; settings: HS38 50 μM, at 20 min, pCa 6.5
Method: A. Typical force trace and graphical representation showing the effect of HS38 (50 μM) on carbachol-induced, Ca^2+ sensitized force in α-toxin permeabilized rabbit ileum. HS38 induced an approximate 30% decrease in the plateaued force at 20 min. (mean±S.E., n=7). B, Western blot analysis of RLC20 and MYPT1 Thr696 phosphorylation following treatment with HS38 (50 μM). […] C. Typical force trace showing the effect, of HS38 on Ca^2+-independent force production in rabbit ileum smooth muscle. […] E. Both the lag time to the onset of force (p <0.05, n=3) and the rate of force development (t1/2) (p <0.02, n=3) were increased following the addition of MC-LR in the presence of HS38 (mean±S.E., n=3).
Tissue Preparation and Force Measurements. […] Intact strips of mouse abdominal aorta were challenged with phenylephrine following pretreatment with HS38 or diluent, DMSO or HS38 and DMSO were added after maximal phenylephrine-induced force was achieved and force output measured. […] For Ca^2+ activating solutions, EGTA (10 mM) and a calculated amount of Ca-methanesulfonate was added to give the desired free Ca^2+ concentration ((Horiuti (1988) J. Physiol.-London 398, 131-148). […]

Chain of Src (P12931 whole entry): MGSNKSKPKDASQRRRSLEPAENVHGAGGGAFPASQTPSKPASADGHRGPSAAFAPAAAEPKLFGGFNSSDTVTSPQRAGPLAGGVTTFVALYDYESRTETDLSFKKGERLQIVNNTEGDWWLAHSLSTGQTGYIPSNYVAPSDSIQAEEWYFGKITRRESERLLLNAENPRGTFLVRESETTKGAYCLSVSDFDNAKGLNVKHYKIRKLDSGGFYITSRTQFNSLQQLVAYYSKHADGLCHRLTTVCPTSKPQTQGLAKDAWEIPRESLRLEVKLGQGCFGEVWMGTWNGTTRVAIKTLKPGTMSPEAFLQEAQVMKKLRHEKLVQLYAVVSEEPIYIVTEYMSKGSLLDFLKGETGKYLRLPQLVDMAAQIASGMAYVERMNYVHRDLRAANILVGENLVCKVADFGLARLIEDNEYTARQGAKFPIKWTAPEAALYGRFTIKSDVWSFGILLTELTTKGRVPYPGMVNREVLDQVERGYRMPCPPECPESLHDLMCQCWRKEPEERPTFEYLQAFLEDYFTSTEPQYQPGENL

CC(Sc1nc2c(cnn2-c2cccc(Cl)c2)c(=O)[nH]1)C(N)=O (centres unmarked) [HS38]
inhibition at 10 µM (Src): 0% | decrease in plateaued carbachol-induced Ca2+-sensitized force (rabbit ileum): ~30%
